In ChEMBL document CHEMBL1649221, “Novel genetic environment of the carbapenem-hydrolyzing beta-lactamase KPC-2 among Enterobacteriaceae in China” (2009):
Values after ≈ are worked out from the molar mass of the structure shown.

What was measured:
Type in all cases: functional
Enterobacter cloacae [1] = experiment: Antimicrobial activity against Enterobacter cloacae expressing beta-lactamase KPC-2 by Etest
Klebsiella pneumoniae [2] = experiment: Antimicrobial activity against Klebsiella pneumoniae PFGE clone B expressing beta-lactamase KPC-2 by Etest
Klebsiella pneumoniae [3] = experiment: Antimicrobial activity against Klebsiella pneumoniae PFGE clone F expressing beta-lactamase KPC-2 by Etest
Klebsiella pneumoniae [4] = experiment: Antimicrobial activity against Klebsiella pneumoniae PFGE clone C expressing beta-lactamase KPC-2 by Etest
Klebsiella pneumoniae [5] = experiment: Antimicrobial activity against Klebsiella pneumoniae PFGE clone D expressing beta-lactamase KPC-2 by Etest
Klebsiella pneumoniae [6] = experiment: Antimicrobial activity against Klebsiella pneumoniae PFGE clone E expressing beta-lactamase KPC-2 by Etest
Klebsiella oxytoca [7] = experiment: Antimicrobial activity against Klebsiella oxytoca expressing beta-lactamase KPC-2 by Etest
Klebsiella pneumoniae [8] = experiment: Antimicrobial activity against Klebsiella pneumoniae PFGE clone A expressing beta-lactamase KPC-2 by Etest
Enterobacter cloacae [9] = experiment: Antimicrobial activity against Enterobacter cloacae expressing beta-lactamase KPC-2 by Etest in presence of beta-lactamase inhibitor Tazobactam
Klebsiella pneumoniae [10] = experiment: Antimicrobial activity against Klebsiella pneumoniae PFGE clone C expressing beta-lactamase KPC-2 by Etest in presence of beta-lactamase inhibitor Tazobactam
Klebsiella pneumoniae [11] = experiment: Antimicrobial activity against Klebsiella pneumoniae PFGE clone F expressing beta-lactamase KPC-2 by Etest in presence of beta-lactamase inhibitor Tazobactam
Klebsiella pneumoniae [12] = experiment: Antimicrobial activity against Klebsiella pneumoniae PFGE clone A expressing beta-lactamase KPC-2 by Etest in presence of beta-lactamase inhibitor Tazobactam
Klebsiella pneumoniae [13] = experiment: Antimicrobial activity against Klebsiella pneumoniae PFGE clone B expressing beta-lactamase KPC-2 by Etest in presence of beta-lactamase inhibitor Tazobactam
Klebsiella oxytoca [14] = experiment: Antimicrobial activity against Klebsiella oxytoca expressing beta-lactamase KPC-2 by Etest in presence of beta-lactamase inhibitor Tazobactam
Klebsiella pneumoniae [15] = experiment: Antimicrobial activity against Klebsiella pneumoniae PFGE clone E expressing beta-lactamase KPC-2 by Etest in presence of beta-lactamase inhibitor Tazobactam
Klebsiella pneumoniae [16] = experiment: Antimicrobial activity against Klebsiella pneumoniae PFGE clone D expressing beta-lactamase KPC-2 by Etest in presence of beta-lactamase inhibitor Tazobactam

| Molecule | MIC (Enterobacter cloacae [1]) [µg/mL] | MIC (Klebsiella pneumoniae [2]) [µg/mL] | MIC (Klebsiella pneumoniae [3]) [µg/mL] | MIC (Klebsiella pneumoniae [4]) [µg/mL] | MIC (Klebsiella pneumoniae [5]) [µg/mL] | MIC (Klebsiella pneumoniae [6]) [µg/mL] | MIC (Klebsiella oxytoca [7]) [µg/mL] | MIC (Klebsiella pneumoniae [8]) [µg/mL] | MIC (Enterobacter cloacae [9]) [µg/mL] | MIC (Klebsiella pneumoniae [10]) [µg/mL] | MIC (Klebsiella pneumoniae [11]) [µg/mL] | MIC (Klebsiella pneumoniae [12]) [µg/mL] | MIC (Klebsiella pneumoniae [13]) [µg/mL] | MIC (Klebsiella oxytoca [14]) [µg/mL] | MIC (Klebsiella pneumoniae [15]) [µg/mL] | MIC (Klebsiella pneumoniae [16]) [µg/mL] |
| --- | --- | --- | --- | --- | --- | --- | --- | --- | --- | --- | --- | --- | --- | --- | --- | --- |
| C[C@@H](O)[C@H]1C(=O)N2C(C(=O)O)=C(S[C@@H]3CN[C@H](C(=O)Nc4cccc(C(=O)O)c4)C3)[C@H](C)[C@H]12 | > 32 | > 32 | > 32 | > 32 | > 16 | > 32 | > 16 | > 32 | – | – | – | – | – | – | – | – |
| NCC[C@H](O)C(=O)N[C@@H]1C[C@H](N)[C@@H](O[C@H]2O[C@H](CN)[C@@H](O)[C@H](O)[C@H]2O)[C@H](O)[C@H]1O[C@H]1O[C@H](CO)[C@@H](O)[C@H](N)[C@H]1O [AMIKACIN] | > 256 | > 1 | 2 (≈ 3.42 µM) | > 1 | > 256 | > 1 | 2 (≈ 3.42 µM) | > 256 | – | – | – | – | – | – | – | – |
| CO[C@@]1(NC(=O)Cc2cccs2)C(=O)N2C(C(=O)O)=C(COC(N)=O)CS[C@@H]21 [CEFOXITIN] | > 256 | > 128 | > 32 | > 128 | > 64 | 32 (≈ 74.9 µM) | > 256 | > 256 | – | – | – | – | – | – | – | – |
| CC(C)(O/N=C(\C(=O)N[C@@H]1C(=O)N2C(C(=O)[O-])=C(C[n+]3ccccc3)CS[C@H]12)c1csc(N)n1)C(=O)O [CEFTAZIDIME] | > 256 | > 128 | > 256 | > 256 | > 32 | > 32 | 128 (≈ 234 µM) | > 256 | – | – | – | – | – | – | – | – |
| C[C@@H](O)[C@H]1C(=O)N2C(C(=O)O)=C(SCCNC=N)C[C@H]12 [IMIPENEM ANHYDROUS] | > 32 | > 16 | > 32 | > 32 | > 2 | > 16 | > 32 | > 32 | – | – | – | – | – | – | – | – |
| C[C@@H](O)[C@H]1C(=O)N2C(C(=O)O)=C(S[C@@H]3CN[C@H](C(=O)N(C)C)C3)[C@H](C)[C@H]12 [MEROPENEM] | > 32 | > 32 | > 32 | > 32 | > 2 | > 16 | > 32 | > 32 | – | – | – | – | – | – | – | – |
| CCN1CCN(C(=O)N[C@@H](C(=O)N[C@@H]2C(=O)N3[C@@H]2SC(C)(C)[C@@H]3C(=O)O)c2ccccc2)C(=O)C1=O [PIPERACILLIN] | – | – | – | – | – | – | – | – | > 256 | > 256 | > 256 | > 256 | > 256 | > 256 | > 256 | > 256 |
| CN(C)c1cc(NC(=O)CNC(C)(C)C)c(O)c2c1C[C@H]1C[C@H]3[C@H](N(C)C)C(O)=C(C(N)=O)C(=O)[C@@]3(O)C(O)=C1C2=O [TIGECYCLINE] | 2 (≈ 3.41 µM) | 0.5 (≈ 0.854 µM) | 0.38 (≈ 0.649 µM) | 0.5 (≈ 0.854 µM) | 0.5 (≈ 0.854 µM) | 1 (≈ 1.71 µM) | 2 (≈ 3.41 µM) | 2 (≈ 3.41 µM) | – | – | – | – | – | – | – | – |
| COLISTIN | 0.5 | 0.5 | 0.5 | 0.5 | 0.5 | 0.5 | 1 | 0.25 | – | – | – | – | – | – | – | – |
